Source: PubChem BioAssay (NCI)
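Dose response: 5 concentrations. Exposure: 48 h. Format: 96-well plates. Endpoint: linear interpolation; highest concentration if not reached. TGI denotes the concentration required for complete inhibition of growth.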

Columns and labels:
Assay in all cases: NCI tumour cell line growth inhibition, 48 h
HCT-15 colon = test system: HCT-15 colon
HL-60(TB) leukemia = test system: HL-60(TB) leukemia
SN12C renal = test system: SN12C renal
RXF 393 renal = test system: RXF 393 renal
NCI-H23 lung = test system: NCI-H23 lung
CAKI-1 renal = test system: CAKI-1 renal
NCI-H460 lung = test system: NCI-H460 lung
SF-539 CNS = test system: SF-539 CNS
NCI-H522 lung = test system: NCI-H522 lung
HT29 colon = test system: HT29 colon
XF 498 CNS = test system: XF 498 CNS
P388/ADR leukemia = test system: P388/ADR leukemia
NCI/ADR-RES ovarian = test system: NCI/ADR-RES ovarian
HOP-62 NSCLC = test system: HOP-62 NSCLC
SNB-78 CNS = test system: SNB-78 CNS
OVCAR-5 ovarian = test system: OVCAR-5 ovarian
DMS 273 small cell lung = test system: DMS 273 small cell lung
SF-295 CNS = test system: SF-295 CNS
SK-MEL-28 melanoma = test system: SK-MEL-28 melanoma
UACC-257 melanoma = test system: UACC-257 melanoma
HCT-116 colon = test system: HCT-116 colon
IGROV1 ovarian = test system: IGROV1 ovarian
EKVX NSCLC = test system: EKVX NSCLC
COLO 205 colon = test system: COLO 205 colon
A498 renal = test system: A498 renal
A549 NSCLC = test system: A549 NSCLC
HOP-92 NSCLC = test system: HOP-92 NSCLC
CCRF-CEM leukemia = test system: CCRF-CEM leukemia
SF-268 CNS = test system: SF-268 CNS
NCI-H226 lung = test system: NCI-H226 lung
M19-MEL melanoma = test system: M19-MEL melanoma
KM12 colon = test system: KM12 colon
SNB-75 CNS = test system: SNB-75 CNS
SNB-19 CNS = test system: SNB-19 CNS
SK-OV-3 ovarian = test system: SK-OV-3 ovarian
UACC-62 melanoma = test system: UACC-62 melanoma
U251 CNS = test system: U251 CNS
OVCAR-8 ovarian = test system: OVCAR-8 ovarian
MCF7 breast = test system: MCF7 breast
OVCAR-4 ovarian = test system: OVCAR-4 ovarian
DLD-1 colon = test system: DLD-1 colon
LOX IMVI melanoma = test system: LOX IMVI melanoma
MALME-3M melanoma = test system: MALME-3M melanoma
OVCAR-3 ovarian = test system: OVCAR-3 ovarian
MOLT-4 leukemia = test system: MOLT-4 leukemia
HCC-2998 colon = test system: HCC-2998 colon
RPMI-8226 leukemia = test system: RPMI-8226 leukemia
KM20L2 colon = test system: KM20L2 colon
P388 leukemia = test system: P388 leukemia
SN12K1 renal = test system: SN12K1 renal
K-562 leukemia = test system: K-562 leukemia
SK-MEL-5 melanoma = test system: SK-MEL-5 melanoma
SK-MEL-2 melanoma = test system: SK-MEL-2 melanoma
UO-31 renal = test system: UO-31 renal
HOP-18 NSCLC = test system: HOP-18 NSCLC
SW-620 colon = test system: SW-620 colon

## CCN(CC)CCNC(=O)C1COc2ccc(-c3cc(=O)c4ccccc4o3)cc2O1 (stereo unspecified)
HCT-15 colon
  TGI: 31.8 µM
HL-60(TB) leukemia
  TGI: 30.8 µM
SN12C renal
  TGI: 55.1 µM
RXF 393 renal
  TGI: 35.4 µM
NCI-H23 lung
  TGI: 60.3 µM
CAKI-1 renal
  TGI: 43.3 µM
NCI-H460 lung
  TGI: 36.2 µM
SF-539 CNS
  TGI: 30 µM
NCI-H522 lung
  TGI: 32.5 µM
HT29 colon
  TGI: 34.6 µM
XF 498 CNS
  TGI: 37.3 µM
P388/ADR leukemia
  TGI: 37.1 µM
NCI/ADR-RES ovarian
  TGI: 45.8 µM
HOP-62 NSCLC
  TGI: 47 µM
SNB-78 CNS
  TGI: 38.6 µM
OVCAR-5 ovarian
  TGI: 56.7 µM
DMS 273 small cell lung
  TGI: 42.3 µM
SF-295 CNS
  TGI: 39.3 µM
SK-MEL-28 melanoma
  TGI: 33.4 µM
UACC-257 melanoma
  TGI: 32 µM
HCT-116 colon
  TGI: 32.7 µM
IGROV1 ovarian
  TGI: 63.5 µM
EKVX NSCLC
  TGI: 61 µM
COLO 205 colon
  TGI: 34 µM
A498 renal
  TGI: 30.3 µM
A549 NSCLC
  TGI: 49.8 µM
HOP-92 NSCLC
  TGI: 53.9 µM
CCRF-CEM leukemia
  TGI: 68.6 µM
SF-268 CNS
  TGI: 55.9 µM
NCI-H226 lung
  TGI: 31.3 µM
M19-MEL melanoma
  TGI: 32.5 µM
KM12 colon
  TGI: 35.4 µM
SNB-75 CNS
  TGI: 42.7 µM
SNB-19 CNS
  TGI: 59.9 µM
SK-OV-3 ovarian
  TGI: 47 µM
UACC-62 melanoma
  TGI: 31.9 µM
U251 CNS
  TGI: > 65.2 µM
OVCAR-8 ovarian
  TGI: 33.4 µM
MCF7 breast
  TGI: 44.6 µM
OVCAR-4 ovarian
  TGI: 35.8 µM
DLD-1 colon
  TGI: > 77.7 µM
LOX IMVI melanoma
  TGI: 31.7 µM
MALME-3M melanoma
  TGI: 30.3 µM
OVCAR-3 ovarian
  TGI: 41.4 µM
MOLT-4 leukemia
  TGI: 57.9 µM
HCC-2998 colon
  TGI: 35.4 µM
RPMI-8226 leukemia
  TGI: 55.2 µM
KM20L2 colon
  TGI: 39 µM
P388 leukemia
  TGI: 21.7 µM
SN12K1 renal
  TGI: 31.1 µM
K-562 leukemia
  TGI: 49 µM
SK-MEL-5 melanoma
  TGI: 35.9 µM
SK-MEL-2 melanoma
  TGI: 38 µM
UO-31 renal
  TGI: 29.6 µM
HOP-18 NSCLC
  TGI: 46.7 µM
SW-620 colon
  TGI: 45.9 µM
